Assay results published in ChEMBL document CHEMBL2440042, “Anti-proliferative activity of hydnocarpin, a natural lignan, is associated with the suppression of Wnt/β-catenin signaling pathway in colon cancer cells” (Bioorg Med Chem Lett, 2013).
Activity calls are given as the source filed them. No cut-off for these calls is given here.

Key:
SW480 [1] = test: Inhibition of Wnt/beta-catenin signaling pathway in human SW480 cells assessed as beta-catenin protein expression at 20 uM after 12 hrs by Western blotting analysis relative to vehicle-treated control
SW480 [2] = test: Inhibition of Wnt/beta-catenin signaling pathway in human SW480 cells assessed as beta-catenin protein expression at 5 uM after 12 hrs by Western blotting analysis relative to vehicle-treated control
SW480 [3] = test: Effect on total beta-catenin protein level in human SW480 cells at 5 to 20 uM after 12 to 24 hrs by Western blotting analysis relative to vehicle-treated control; format: functional, cell-based
HEK293 [4] = test: Inhibition of Wnt/beta-catenin signaling pathway in human HEK293 cells at 20 uM after 24 hrs by dual luciferase reporter gene assay relative to vehicle-treated control; conditions: HEK293, 24 h
HEK293 [5] = test: Inhibition of Wnt/beta-catenin signaling pathway in human HEK293 cells after 24 hrs by dual luciferase reporter gene assay relative to vehicle-treated control; format: cell-based
SW480 [6] = test: Antiproliferative activity against human SW480 cells assessed as growth inhibition after 72 hrs by SRB assay; format: functional, cell-based; conditions: SW480, 72 h
SW480 [7] = test: Inhibition of Wnt/beta-catenin signaling pathway in human SW480 cells assessed as increase in phosphorylation of beta-catenin at Ser45 at 5 uM after 12 hrs by Western blotting analysis relative to vehicle-treated control
SW480 [8] = test: Inhibition of Wnt/beta-catenin signaling pathway in human SW480 cells assessed as increase in phosphorylation of beta-catenin at Ser45 at 10 uM after 12 hrs by Western blotting analysis relative to vehicle-treated control
SW480 [9] = test: Inhibition of Wnt/beta-catenin signaling pathway in human SW480 cells assessed as increase in phosphorylation of beta-catenin at Ser45 at 20 uM after 12 hrs by Western blotting analysis relative to vehicle-treated control
SW480 [10] = test: Inhibition of Wnt/beta-catenin signaling pathway in human SW480 cells assessed as dvl1 protein expression at 5 uM after 12 hrs by Western blotting analysis relative to vehicle-treated control
SW480 [11] = test: Inhibition of Wnt/beta-catenin signaling pathway in human SW480 cells assessed as dvl1 protein expression at 20 uM after 12 hrs by Western blotting analysis relative to vehicle-treated control
SW480 [12] = test: Inhibition of Wnt/beta-catenin signaling pathway in human SW480 cells assessed as dvl3 protein expression at 5 uM after 12 hrs by Western blotting analysis relative to vehicle-treated control
SW480 [13] = test: Inhibition of Wnt/beta-catenin signaling pathway in human SW480 cells assessed as dvl3 protein expression at 20 uM after 12 hrs by Western blotting analysis relative to vehicle-treated control
SW480 [14] = test: Inhibition of Wnt/beta-catenin signaling pathway in human SW480 cells assessed as GSK3-beta protein expression at 5 uM after 12 hrs by Western blotting analysis relative to vehicle-treated control
SW480 [15] = test: Inhibition of Wnt/beta-catenin signaling pathway in human SW480 cells assessed as GSK3-beta protein expression at 10 uM after 12 hrs by Western blotting analysis relative to vehicle-treated control
SW480 [16] = test: Inhibition of Wnt/beta-catenin signaling pathway in human SW480 cells assessed as CK1-alpha protein expression at 5 uM after 12 hrs by Western blotting analysis relative to vehicle-treated control
SW480 [17] = test: Inhibition of Wnt/beta-catenin signaling pathway in human SW480 cells assessed as Axin2 protein expression at 5 uM after 24 hrs by Immunoblotting analysis relative to vehicle-treated control
SW480 [18] = test: Inhibition of Wnt/beta-catenin signaling pathway in human SW480 cells assessed as Axin2 protein expression at 20 uM after 12 hrs by Western blotting analysis relative to vehicle-treated control
SW480 [19] = test: Inhibition of Wnt/beta-catenin signaling pathway in human SW480 cells assessed as beta-catenin protein expression at 10 uM after 24 hrs by Western blotting analysis relative to vehicle-treated control
SW480 [20] = test: Inhibition of Wnt/beta-catenin signaling pathway in human SW480 cells assessed as beta-catenin protein expression at 20 uM after 24 hrs by Western blotting analysis relative to vehicle-treated control
SW480 [21] = test: Inhibition of Wnt/beta-catenin signaling pathway in human SW480 cells assessed as phosphorylated (S45) beta-catenin protein expression at 20 uM after 24 hrs by Western blotting analysis relative to vehicle-treated control
SW480 [22] = test: Inhibition of Wnt/beta-catenin signaling pathway in human SW480 cells assessed as dvl1 protein expression at 5 uM after 24 hrs by Western blotting analysis relative to vehicle-treated control
SW480 [23] = test: Inhibition of Wnt/beta-catenin signaling pathway in human SW480 cells assessed as dvl1 protein expression at 20 uM after 24 hrs by Western blotting analysis relative to vehicle-treated control
SW480 [24] = test: Inhibition of Wnt/beta-catenin signaling pathway in human SW480 cells assessed as dvl2 protein expression at 10 uM after 24 hrs by Western blotting analysis relative to vehicle-treated control
SW480 [25] = test: Inhibition of Wnt/beta-catenin signaling pathway in human SW480 cells assessed as dvl3 protein expression at 5 uM after 24 hrs by Western blotting analysis relative to vehicle-treated control
SW480 [26] = test: Inhibition of Wnt/beta-catenin signaling pathway in human SW480 cells assessed as dvl3 protein expression at 10 uM after 24 hrs by Western blotting analysis relative to vehicle-treated control
SW480 [27] = test: Inhibition of Wnt/beta-catenin signaling pathway in human SW480 cells assessed as dvl3 protein expression at 20 uM after 24 hrs by Western blotting analysis relative to vehicle-treated control
SW480 [28] = test: Inhibition of Wnt/beta-catenin signaling pathway in human SW480 cells assessed as GSK3-beta protein expression at 20 uM after 24 hrs by Western blotting analysis relative to vehicle-treated control
SW480 [29] = test: Inhibition of Wnt/beta-catenin signaling pathway in human SW480 cells assessed as CK1-alpha protein expression at 20 uM after 24 hrs by Western blotting analysis relative to vehicle-treated control
SW480 [30] = test: Inhibition of Wnt/beta-catenin signaling pathway in human SW480 cells assessed as Axin1 protein expression at 20 uM after 24 hrs by Western blotting analysis relative to vehicle-treated control
SW480 [31] = test: Inhibition of Wnt/beta-catenin signaling pathway in human SW480 cells assessed as Axin2 protein expression at 5 uM after 24 hrs by Western blotting analysis relative to vehicle-treated control
SW480 [32] = test: Inhibition of Wnt/beta-catenin signaling pathway in human SW480 cells assessed as Axin2 protein expression at 10 uM after 24 hrs by Western blotting analysis relative to vehicle-treated control
SW480 [33] = test: Inhibition of Wnt/beta-catenin signaling pathway in human SW480 cells assessed as Axin1 protein expression at 5 uM after 24 hrs by Immunoblotting analysis relative to vehicle-treated control
SW480 [34] = test: Inhibition of Wnt/beta-catenin signaling pathway in human SW480 cells assessed as Axin1 protein expression at 10 uM after 24 hrs by Immunoblotting analysis relative to vehicle-treated control

**Q.** For `COc1cc([C@H]2Oc3ccc(-c4cc(=O)c5c(O)cc(O)cc5o4)cc3O[C@@H]2CO)ccc1O` (relative stereo), which “fold change (FC)” value (SW480 [1]) is on record?
**A.** The value was 0.6.

**Q.** And the “fold change (FC)” value (SW480 [2])?
**A.** Its value is 0.8.

**Q.** What about the Activity (SW480 [3]) of the same compound?
**A.** The Activity was “inactive”.

**Q.** And the inhibition at 20 µM (HEK293 [4])?
**A.** Its inhibition at 20 µM is 61.6%.

**Q.** And the inhibition (HEK293 [5])?
**A.** The inhibition was “Dose-dependent effect”.

**Q.** What about the IC50 (SW480 [6]) of the same compound?
**A.** Its IC50 is 20.3 µM.

**Q.** And the “fold change (FC)” value (SW480 [7])?
**A.** The value was 3.

**Q.** And the “fold change (FC)” value (SW480 [8])?
**A.** Its value is 3.6.

**Q.** And the “fold change (FC)” value (SW480 [9])?
**A.** Its value is 4.9.

**Q.** And the “fold change (FC)” value (SW480 [10])?
**A.** The value was 1.2.

**Q.** What about the “fold change (FC)” value (SW480 [11]) of the same compound?
**A.** The value was 1.1.

**Q.** What about the “fold change (FC)” value (SW480 [12]) of the same compound?
**A.** Its value is 1.

**Q.** What about the “fold change (FC)” value (SW480 [13]) of the same compound?
**A.** The value was 1.1.

**Q.** What about the “fold change (FC)” value (SW480 [14]) of the same compound?
**A.** The value was 0.8.

**Q.** What about the “fold change (FC)” value (SW480 [15]) of the same compound?
**A.** The value was 0.8.

**Q.** And the “fold change (FC)” value (SW480 [16])?
**A.** The value was 0.9.

**Q.** And the “fold change (FC)” value (SW480 [17])?
**A.** The value was 1.

**Q.** What about the “fold change (FC)” value (SW480 [18]) of the same compound?
**A.** Its value is 6.5.

**Q.** What about the “fold change (FC)” value (SW480 [19]) of the same compound?
**A.** Its value is 0.8.

**Q.** What about the “fold change (FC)” value (SW480 [20]) of the same compound?
**A.** Its value is 0.7.

**Q.** What about the “fold change (FC)” value (SW480 [21]) of the same compound?
**A.** Its value is 2.4.

**Q.** What about the “fold change (FC)” value (SW480 [22]) of the same compound?
**A.** Its value is 1.

**Q.** What about the “fold change (FC)” value (SW480 [23]) of the same compound?
**A.** The value was 1.2.

**Q.** What about the “fold change (FC)” value (SW480 [24]) of the same compound?
**A.** The value was 1.2.

**Q.** And the “fold change (FC)” value (SW480 [25])?
**A.** Its value is 1.2.

**Q.** And the “fold change (FC)” value (SW480 [26])?
**A.** The value was 1.

**Q.** And the “fold change (FC)” value (SW480 [27])?
**A.** Its value is 1.1.

**Q.** What about the “fold change (FC)” value (SW480 [28]) of the same compound?
**A.** Its value is 1.

**Q.** And the “fold change (FC)” value (SW480 [29])?
**A.** Its value is 1.1.

**Q.** What about the “fold change (FC)” value (SW480 [30]) of the same compound?
**A.** The value was 4.2.

**Q.** And the “fold change (FC)” value (SW480 [31])?
**A.** Its value is 1.8.

**Q.** What about the “fold change (FC)” value (SW480 [32]) of the same compound?
**A.** Its value is 3.2.

**Q.** And the “fold change (FC)” value (SW480 [33])?
**A.** The value was 1.4.

**Q.** What about the “fold change (FC)” value (SW480 [34]) of the same compound?
**A.** Its value is 1.5.
